Where two headings read alike, the source gives them in different places.
How the values were obtained:
monkeys = conditions: cited from earlier work
dogs = conditions: very high doses (27 and 54×ED95); cited from earlier work
[1] = Phase I pharmacokinetics after single IV bolus; format: in vivo; conditions: both sexes, human
Description: (Abstract available in the final supplement of the Journal of Anesthesia and Analgesia, May 2020 (Volume 30, Issue pages 73-74), which is incorporated herein by reference. Healthy volunteers (n=34) aged 18 to 55 of either gender gave informed consent to an 1RB-approved Phase I protocol, NMB was measured by mechanomyography during sevoflurane (0.5 MAC)/N20 (70%) anesthesia. Each volunteer received a single IV bolus of RP1000,

COc1ccc(C[C@@H]2c3cc(OC)c(OC)cc3CC[N@@+]2(C)CCCOC(=O)/C=C/C(=O)OCCC[N@+]2(C)CCc3cc(OC)c(OC)cc3[C@H]2Cc2ccc(OC)c(OC)c2)cc1OC.[Cl-].[Cl-] [RP1000]
effects on autonomic or circulatory systems (monkeys): no observed ill-elects on autonomic or circulatory systems
decrease in mean arterial pressure (dogs): 20%
increase in heart rate (dogs): 20%
half-life ([1]; in vivo, intravenous, all dosage groups, read-out: half-life of elimination): 25 to 26 min
AUC(0-t) ([1]; plasma, iv, 0.04 mg/kg, single IV bolus 0.04 mg/kg (n = 6), read-out: AUClast, Geometric Mean (converted)): 132 ng·h/mL
AUC(0-t) ([1]; plasma, iv, 0.04 mg/kg, single IV bolus 0.04 mg/kg (n = 6), read-out: AUClast, Mean (converted)): 6.35 ng·h/mL
clearance ([1]; plasma, iv, 0.04 mg/kg, single IV bolus 0.04 mg/kg (n = 6), read-out: CL (clearance), Geometric Mean): 387 mL/min
clearance ([1]; plasma, iv, 0.04 mg/kg, single IV bolus 0.04 mg/kg (n = 6), read-out: CL (clearance), Mean (SD)): 400 mL/min
Cmax ([1]; plasma, iv, 0.04 mg/kg, single IV bolus 0.04 mg/kg (n = 6), read-out: Cmax, Geometric Mean): 2360 ng/mL
Cmax ([1]; plasma, iv, 0.04 mg/kg, single IV bolus 0.04 mg/kg (n = 6), read-out: Cmax, Mean): 2540 ng/mL
Vd ([1]; plasma, iv, 0.04 mg/kg, single IV bolus 0.04 mg/kg (n = 6), read-out: Vss (volume at steady state), Geometric Mean): 9.33 L
Vd ([1]; plasma, iv, 0.04 mg/kg, single IV bolus 0.04 mg/kg (n = 6), read-out: Vss (volume at steady state), Mean): 9.54 L
half-life ([1]; plasma, iv, 0.04 mg/kg, single IV bolus 0.04 mg/kg (n = 6), read-out: t1/2 (terminal elimination half-life), Geometric Mean): 27.4 min
half-life ([1]; plasma, iv, 0.04 mg/kg, single IV bolus 0.04 mg/kg (n = 6), read-out: t1/2 (terminal elimination half-life), Mean (SD)): 29 min
AUC(0-t) ([1]; plasma, iv, 0.06 mg/kg, single IV bolus 0.06 mg/kg (n = 6), read-out: AUClast, Geometric Mean (converted)): 160 ng·h/mL
AUC(0-t) ([1]; plasma, iv, 0.06 mg/kg, single IV bolus 0.06 mg/kg (n = 6), read-out: AUClast, Mean (converted)): 153 ng·h/mL
clearance ([1]; plasma, iv, 0.06 mg/kg, single IV bolus 0.06 mg/kg (n = 6), read-out: CL (clearance), Geometric Mean): 399 mL/min
clearance ([1]; plasma, iv, 0.06 mg/kg, single IV bolus 0.06 mg/kg (n = 6), read-out: CL (clearance), Mean (SD)): 409 mL/min
Cmax ([1]; plasma, iv, 0.06 mg/kg, single IV bolus 0.06 mg/kg (n = 6), read-out: Cmax, Geometric Mean): 2600 ng/mL
Cmax ([1]; plasma, iv, 0.06 mg/kg, single IV bolus 0.06 mg/kg (n = 6), read-out: Cmax, Mean): 3070 ng/mL
Vd ([1]; plasma, iv, 0.06 mg/kg, single IV bolus 0.06 mg/kg (n = 6), read-out: Vss (volume at steady state), Geometric Mean): 8.8 L
Vd ([1]; plasma, iv, 0.06 mg/kg, single IV bolus 0.06 mg/kg (n = 6), read-out: Vss (volume at steady state), Mean): 8.92 L
half-life ([1]; plasma, iv, 0.06 mg/kg, single IV bolus 0.06 mg/kg (n = 6), read-out: t1/2 (terminal elimination half-life), Geometric Mean): 26.3 min
half-life ([1]; plasma, iv, 0.06 mg/kg, single IV bolus 0.06 mg/kg (n = 6), read-out: t1/2 (terminal elimination half-life), Mean (SD)): 26 min
AUC(0-t) ([1]; plasma, iv, 0.08 mg/kg, single IV bolus 0.08 mg/kg (n = 6), read-out: AUClast, Geometric Mean (converted)): 248 ng·h/mL
AUC(0-t) ([1]; plasma, iv, 0.08 mg/kg, single IV bolus 0.08 mg/kg (n = 6), read-out: AUClast, Mean (converted)): 235 ng·h/mL
clearance ([1]; plasma, iv, 0.08 mg/kg, single IV bolus 0.08 mg/kg (n = 6), read-out: CL (clearance), Geometric Mean): 387 mL/min
clearance ([1]; plasma, iv, 0.08 mg/kg, single IV bolus 0.08 mg/kg (n = 6), read-out: CL (clearance), Mean (SD)): 390 mL/min
Cmax ([1]; plasma, iv, 0.08 mg/kg, single IV bolus 0.08 mg/kg (n = 6), read-out: Cmax, Geometric Mean): 3610 ng/mL
Cmax ([1]; plasma, iv, 0.08 mg/kg, single IV bolus 0.08 mg/kg (n = 6), read-out: Cmax, Mean): 4040 ng/mL
Vd ([1]; plasma, iv, 0.08 mg/kg, single IV bolus 0.08 mg/kg (n = 6), read-out: Vss (volume at steady state), Geometric Mean): 9.58 L
Vd ([1]; plasma, iv, 0.08 mg/kg, single IV bolus 0.08 mg/kg (n = 6), read-out: Vss (volume at steady state), Mean): 9.65 L
half-life ([1]; plasma, iv, 0.08 mg/kg, single IV bolus 0.08 mg/kg (n = 6), read-out: t1/2 (terminal elimination half-life), Geometric Mean): 27 min
half-life ([1]; plasma, iv, 0.08 mg/kg, single IV bolus 0.08 mg/kg (n = 6), read-out: t1/2 (terminal elimination half-life), Mean (SD)): 27 min
AUC(0-t) ([1]; plasma, iv, 0.1 mg/kg, single IV bolus 0.10 mg/kg (n = 6), read-out: AUClast, Geometric Mean (converted)): 303 ng·h/mL
AUC(0-t) ([1]; plasma, iv, 0.1 mg/kg, single IV bolus 0.10 mg/kg (n = 6), read-out: AUClast, Mean (converted)): 291 ng·h/mL
clearance ([1]; plasma, iv, 0.1 mg/kg, single IV bolus 0.10 mg/kg (n = 6), read-out: CL (clearance), Geometric Mean): 438 mL/min
clearance ([1]; plasma, iv, 0.1 mg/kg, single IV bolus 0.10 mg/kg (n = 6), read-out: CL (clearance), Mean (SD)): 443 mL/min
Cmax ([1]; plasma, iv, 0.1 mg/kg, single IV bolus 0.10 mg/kg (n = 6), read-out: Cmax, Geometric Mean): 5020 ng/mL
Cmax ([1]; plasma, iv, 0.1 mg/kg, single IV bolus 0.10 mg/kg (n = 6), read-out: Cmax, Mean): 5270 ng/mL
Vd ([1]; plasma, iv, 0.1 mg/kg, single IV bolus 0.10 mg/kg (n = 6), read-out: Vss (volume at steady state), Geometric Mean): 9.02 L
Vd ([1]; plasma, iv, 0.1 mg/kg, single IV bolus 0.10 mg/kg (n = 6), read-out: Vss (volume at steady state), Mean): 9.12 L
half-life ([1]; plasma, iv, 0.1 mg/kg, single IV bolus 0.10 mg/kg (n = 6), read-out: t1/2 (terminal elimination half-life), Geometric Mean): 23.9 min
half-life ([1]; plasma, iv, 0.1 mg/kg, single IV bolus 0.10 mg/kg (n = 6), read-out: t1/2 (terminal elimination half-life), Mean (SD)): 24 min
AUC(0-t) ([1]; plasma, iv, 0.14 mg/kg, single IV bolus 0.14 mg/kg (n = 4), read-out: AUClast, Geometric Mean (converted)): 507 ng·h/mL
